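Protocol summary: plate cells (96-well), add compound at 5 concentrations, incubate 48 h, interpolate endpoints linearly. The concentration for 50% growth inhibition is given as GI50.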 Calls of active or inactive are those of the source. Cut-off read from the data, not from the text of the source: active = GI50 up to about 1.1 µM and inactive = higher.
Legend:
Test in all cases: growth of human tumour cells (NCI), 48 h
OVCAR-3 = test system: OVCAR-3
Hs-578T = test system: Hs-578T
HOP-62 = test system: HOP-62
HCC 2998 = test system: HCC 2998
UACC-257 = test system: UACC-257
MCF7 = test system: MCF7
SK-MEL-28 = test system: SK-MEL-28
MDA-MB-231 = test system: MDA-MB-231
SF-295 = test system: SF-295
M14 = test system: M14
NCI-H460 = test system: NCI-H460
HCT-15 = test system: HCT-15
UO-31 = test system: UO-31
MDA-MB-435 = test system: MDA-MB-435
KM12 = test system: KM12
HT-29 = test system: HT-29
SF-268 = test system: SF-268
RPMI-8226 = test system: RPMI-8226
SF-539 = test system: SF-539

Row | Structure (SMILES) | GI50 (OVCAR-3) | GI50 (Hs-578T) | GI50 (HOP-62) | GI50 (HCC 2998) | GI50 (UACC-257) | GI50 (MCF7) | GI50 (SK-MEL-28) | GI50 (MDA-MB-231) | GI50 (SF-295) | GI50 (M14) | GI50 (NCI-H460) | GI50 (HCT-15) [µM] | GI50 (UO-31) | GI50 (MDA-MB-435) | GI50 (KM12) | GI50 (HT-29) | GI50 (SF-268) | GI50 (RPMI-8226) | GI50 (SF-539)
1 | O=C(N/N=C\c1ccc([N+](=O)[O-])cc1)c1ccccc1Nc1ccccc1C(=O)N/N=C/c1ccc([N+](=O)[O-])cc1 | > 100 µM (inactive) | > 100 µM (inactive) | > 100 µM (inactive) | > 100 µM (inactive) | > 100 µM (inactive) | > 100 µM (inactive) | > 100 µM (inactive) | 25.8 µM (inactive) | > 100 µM (inactive) | 27.3 µM (inactive) | > 100 µM (inactive) | > 100 | > 100 µM (inactive) | > 100 µM (inactive) | > 100 µM (inactive) | > 100 µM (inactive) | > 100 µM (inactive) | > 100 µM (inactive) | –
2 | Cc1nc(N)sc1/N=N/c1cc(Cl)c([N+](=O)[O-])cc1Cl | 15.6 µM (inactive) | 21.9 µM (inactive) | 33.7 µM (inactive) | – | 16.7 µM (inactive) | 26.9 µM (inactive) | 10.7 µM (inactive) | 14.8 µM (inactive) | 23.9 µM (inactive) | 50.4 µM (inactive) | 30 µM (inactive) | 21.4 | 24.9 µM (inactive) | 19.4 µM (inactive) | 18.1 µM (inactive) | 12.4 µM (inactive) | 29.9 µM (inactive) | 2.29 µM (inactive) | 17.3 µM (inactive)
3 | COCOc1c(C(OCOC)c2cnc(Sc3ccccc3)n2C)ccc(OC)c1OC (stereo unspecified) | > 100 µM (inactive) | 94.4 µM (inactive) | > 100 µM (inactive) | > 100 µM (inactive) | 63.2 µM (inactive) | > 100 µM (inactive) | > 100 µM (inactive) | > 100 µM (inactive) | > 100 µM (inactive) | – | > 100 µM (inactive) | > 100 | 73.6 µM (inactive) | > 100 µM (inactive) | > 100 µM (inactive) | > 100 µM (inactive) | > 100 µM (inactive) | 65 µM (inactive) | > 100 µM (inactive)
4 | CC(=O)ON(OC(C)=O)c1ccc(C)cc1 | > 100 µM (inactive) | > 100 µM (inactive) | > 100 µM (inactive) | > 100 µM (inactive) | > 100 µM (inactive) | > 100 µM (inactive) | > 100 µM (inactive) | > 100 µM (inactive) | > 100 µM (inactive) | > 100 µM (inactive) | > 100 µM (inactive) | > 100 | > 100 µM (inactive) | > 100 µM (inactive) | > 100 µM (inactive) | > 100 µM (inactive) | > 100 µM (inactive) | > 100 µM (inactive) | –
5 | COc1c(C)c(OCC=C(C)C)cc(CO)c1CO | – | 44.1 µM (inactive) | 56.5 µM (inactive) | 82.6 µM (inactive) | 81.8 µM (inactive) | 38.5 µM (inactive) | – | 69.8 µM (inactive) | 45.4 µM (inactive) | > 100 µM (inactive) | 38.7 µM (inactive) | 41.5 | – | 55.3 µM (inactive) | 63 µM (inactive) | 54.5 µM (inactive) | > 100 µM (inactive) | 20.4 µM (inactive) | 53.7 µM (inactive)
6 | Cn1c(=O)c2c([nH]/c(=N/N=C/c3ccccc3C(=O)O)n2C)n(C)c1=O | > 100 µM (inactive) | > 100 µM (inactive) | > 100 µM (inactive) | – | > 100 µM (inactive) | > 100 µM (inactive) | > 100 µM (inactive) | > 100 µM (inactive) | > 100 µM (inactive) | > 100 µM (inactive) | > 100 µM (inactive) | > 100 | > 100 µM (inactive) | > 100 µM (inactive) | > 100 µM (inactive) | > 100 µM (inactive) | > 100 µM (inactive) | > 100 µM (inactive) | > 100 µM (inactive)
7 | COC(=O)/C(=N\N)C(C(=O)C(=O)Nc1cccc([N+](=O)[O-])c1)c1nc2ccc(C(=O)c3ccccc3)cc2nc1O (stereo unspecified) | > 100 µM (inactive) | > 100 µM (inactive) | 73.1 µM (inactive) | > 100 µM (inactive) | > 100 µM (inactive) | 54.2 µM (inactive) | > 100 µM (inactive) | > 100 µM (inactive) | 96.4 µM (inactive) | > 100 µM (inactive) | > 100 µM (inactive) | > 100 | 37.5 µM (inactive) | > 100 µM (inactive) | > 100 µM (inactive) | > 100 µM (inactive) | > 100 µM (inactive) | – | > 100 µM (inactive)
8 | N#Cc1c(-c2ccccc2)c(C#N)c(=O)n(NS(=O)(=O)c2ccccc2)c1O | – | > 100 µM (inactive) | > 100 µM (inactive) | > 100 µM (inactive) | > 100 µM (inactive) | > 100 µM (inactive) | > 100 µM (inactive) | > 100 µM (inactive) | > 100 µM (inactive) | > 100 µM (inactive) | > 100 µM (inactive) | > 100 | – | > 100 µM (inactive) | > 100 µM (inactive) | > 100 µM (inactive) | > 100 µM (inactive) | > 100 µM (inactive) | > 100 µM (inactive)
